Target: T1, human recombinant Yes [a.a. 2–543 (end)] (Homo sapiens, UniProt P07947)
T1 construct: human recombinant Yes [a.a; 2–543 (end)]; purchased BPS Bioscience 40488
Assay: ADP-Glo kinase assay, inhibition rates of Yes phosphorylation activity (first and second screening)
Assay type: biochemical
Settings: 10 μmol L−1 compound; for First screening IR (inhibition rate): mean of n = 4 wells; for Second screening IR (inhibition rate): dissolved from fresh powder, n = 4
Method: All inhibitory assays of the phosphorylation activity of Yes were performed in accordance with the Promega Technical Manual for the ADP-Glo™ Kinase Assay (Fitchburg, WI, USA. Catalog number: V9102). The human recombinant Yes [a.a. 2–543 (end)] was purchased from BPS Bioscience (catalog number: 40488). The details of the assay protocol and reagent information are given elsewhere.
The screening was conducted in three steps consisting of the first screening, the second screening, and the IC50 determination, as can be illustrated in Fig. 1b. First, we determined the inhibition rates of the 1,991 compounds. Each compound was placed in 4 wells of a 384-well plate. In total, 80 compounds were assayed on one plate and the other wells were used for positive and negative controls. The compounds were randomly placed on plates so that compounds proposed by one group were not placed on a plate together. A mean of four inhibition rates for each compound was compared to criteria for the first screening. […] Second, the inhibition rates of the screened compounds were determined on one plate using the same procedure of the first screening, where compounds were dissolved from fresh powder. […] Screened compounds were then evaluated for their IC50 values.

T1 sequence (P07947 2-543): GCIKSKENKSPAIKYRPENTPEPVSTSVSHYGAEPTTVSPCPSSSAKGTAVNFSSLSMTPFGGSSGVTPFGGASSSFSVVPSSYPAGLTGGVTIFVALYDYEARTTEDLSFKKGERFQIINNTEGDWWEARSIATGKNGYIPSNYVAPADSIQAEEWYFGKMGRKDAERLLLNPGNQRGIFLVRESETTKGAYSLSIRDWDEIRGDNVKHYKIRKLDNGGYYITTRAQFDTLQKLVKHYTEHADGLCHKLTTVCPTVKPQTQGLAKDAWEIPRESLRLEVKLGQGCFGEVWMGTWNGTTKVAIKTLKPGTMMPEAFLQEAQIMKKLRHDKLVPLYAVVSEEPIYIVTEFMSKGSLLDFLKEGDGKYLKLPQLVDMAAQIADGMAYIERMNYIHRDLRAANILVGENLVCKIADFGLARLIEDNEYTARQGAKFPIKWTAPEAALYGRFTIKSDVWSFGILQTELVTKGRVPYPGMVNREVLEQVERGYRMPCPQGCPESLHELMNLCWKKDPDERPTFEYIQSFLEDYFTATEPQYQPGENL

Compound	First screening IR (inhibition rate)	Second screening IR (inhibition rate)
Cc1cc(C)c(NC(=O)c2cn3c4c(c(N5CCN(C)CC5)c(F)cc4c2=O)OCC3C)c(C)c1 (stereo not drawn) [Compound Z28129480]	9%	–
Cc1ccc(-c2c(C)sc3nc(CN4CCN(CC(=O)N5CCOCC5)CC4)[nH]c(=O)c23)cc1 [Compound Z89215884]	5%	–
N#Cc1cccc(NC(=O)NCCNC(=O)c2c(F)cccc2F)c1 [Compound Z1189154512]	-6%	–
CC(C)(C)Oc1cccc(CN2CCC(c3c[nH]c4ncccc34)CC2)n1 [Compound Z1564730073]	12%	–
COc1ccc(/C=C2/CC(C)Cc3c2nc2ccccc2c3C(=O)O)c(OC)c1 (stereo not drawn) [Compound Z46107821]	-10%	–
COCC(=O)N1CCCCCC1C1CCN(c2ncc(C(N)=O)cc2Cl)CC1 (stereo not drawn) [Compound Z1170427223]	2%	–
Cc1ccc(-c2cc(-c3ccccc3F)c3cc(Cl)ccc3n2)cc1.Cl [Compound Z48955827]	12%	–
CCN(CC)S(=O)(=O)c1ccc(OC)c(NC(=S)NCc2ccccc2)c1 [Compound Z45779271]	13%	–
Cc1noc(C)c1COC(=O)CCc1nc(-c2cccs2)no1 [Compound Z114088706]	9%	–
Cn1ncc2c(N3CCCC3CO)ncnc21 (stereo not drawn) [Compound Z817034034]	3%	–
O=C(/C=C/c1cn(-c2ccccc2)nc1-c1cccnc1)N1CC=C(c2ccccc2)CC1 [Compound Z29699890]	10%	–
CCCN(C1CCS(=O)(=O)C1)S(=O)(=O)CCC (stereo not drawn) [Compound Z830071152]	16%	–
Cc1ccc(OCCSCc2nc(N)nc(Nc3ccc(F)cc3)n2)cc1 [Compound Z135099694]	9%	–
O=S(=O)(Nc1cccc(-c2cn3ccccc3n2)c1)c1ccccc1 [Compound Z57289575]	41%	–
Cn1ncc2c(N(Cc3ccccc3F)C3CC3)ncnc21 [Compound Z328694806]	-21%	–
O=C(Nc1cc(Cl)cc(Br)c1OC(F)F)C(=O)N1CCCSCC1 [Compound Z754942410]	13%	–
CCOc1cc(/C=C2/CCCc3c2nc2ccccc2c3C(=O)O)ccc1OC [Compound Z46035916]	51%	-8%
Cc1ccc(S(=O)(=O)N(C)C2(C)CCS(=O)(=O)C2)cc1 (stereo not drawn) [Compound Z131022526]	3%	–
O=C(CSc1nnc(-c2c[nH]c3ccccc23)n1-c1ccc(Cl)cc1)N1CCNC1=O [Compound Z19511505]	13%	–
Cc1ccc(S(=O)(=O)C2CS(=O)(=O)CC2O)cc1 (stereo not drawn) [Compound Z56757815]	-3%	–
CCCN1CCN(c2ccc(S(=O)(=O)NC3CCC(C)CC3)cc2[N+](=O)[O-])CC1 (stereo not drawn) [Compound Z31152357]	-14%	–
CCc1ccc(S(=O)(=O)N(C)C2CCS(=O)(=O)C2)cc1 (stereo not drawn) [Compound Z89320983]	10%	–
COc1ccc(-n2c(SCC(=O)N3CCCCCC3)nnc2-c2ccc(Cl)cc2)cc1 [Compound Z19871234]	2%	–
COc1cc(/C=C/C(=O)c2ccc3c(c2)NC(=O)CO3)ccc1O [Compound Z114950222]	1%	–
O=C(NCCOc1ccc(Cl)cc1)c1ccc2nc[nH]c2c1 [Compound Z73381327]	12%	–
COC(=O)c1ccc(F)c(S(=O)(=O)N(C)C2C3CCOC3C2(C)C)c1 (stereo not drawn) [Compound Z1252759503]	3%	–
CC(Nc1ccc2c(c1)OCCO2)C(=O)Nc1ccc(F)c(F)c1F (stereo not drawn) [Compound Z44489053]	4%	–
CCc1ccc(-n2c(-c3ccccc3)cn3c4c(=O)n(CCN5CCOCC5)c(=O)n(C)c4nc23)cc1 [Compound Z237376112]	39%	20%

Reference: article PMC5607274, “An iterative compound screening contest method for identifying target protein inhibitors using the tyrosine-protein kinase Yes” (Scientific Reports, 2017)
